Assay results reported in PMC4703546 (Bioorganic & medicinal chemistry, 2015).

Legend:
[1] = system: all c-Met-dependant cell lines; experiment: MTT proliferation assay, panel summary; format: cell-based; conditions: Homo sapiens, read-out: IC50 range, antiproliferative activity
[2] = system: c-Met in MDA-MB-231 cells; experiment: Western blot analysis of c-Met and p-c-Met levels; format: cell-based, human; conditions: MDA-MB-231, 15 and 30 μM, 48 h
[3] = system: MDA-MB-231/GFP; experiment: Orthotopic athymic nude mouse xenograft model; format: in vivo, athymic nude mice; conditions: 10 mg/kg i.p. 3 times per week
[4] = system: non-tumorigenic human mammary epithelial cells MCF-10A
[5] = system: HL-60 cells; conditions: HL-60, 5 and 10 μM; cited from earlier work

Row | SMILES | IC50 [1] | effect on phosphorylated (activated) c-Met level [2] | effect on total c-Met level [2] | effect on body weight gains and gross phenotype ([3]; listed as meleagrin) | effect on body weight gains and gross phenotype ([3]; listed as meleagrin (1)) | toxicity towards MCF-10A cells [4] | cytotoxic mechanism by flow cytometric analysis [5]
1 | C=CC(C)(C)[C@@]12C[C@H]3C(=O)N/C(=C/c4c[nH]cn4)C(=O)N3[C@@H]1Nc1ccccc12 [Roquefortine C (2), roquefortine C] | 20 to 40 µM | – | – | – | – | – | –
2 | C=CC(C)(C)[C@@]12C=C(O)C(=O)N3/C(=C/c4cnc[nH]4)C(=O)N[C@]31N(OC)c1ccccc12 [Meleagrin (1), meleagrin] | 1.8 to 8.9 µM | significant reduction | no effect | not adversely affecting | no significant changes | minimal | arrested the cell cycle through G2/M phase
3 | C=CC(C)(C)[C@@]12C=C(O)C(=O)N3/C(=C/c4cn([C@H]5C[C@@]6(O)O[C@@H]7C[C@@]6(C)[C@]6(C[C@]8(C)CCC(C)(C)[C@@H]8[C@@H]76)[C@@H]5C)cn4)C(=O)N[C@]31N(OC)c1ccccc12 [Meleagrin B] | – | – | – | – | – | – | induced HL-60 cells apoptosis
4 | O=C1N[C@@H](Cc2c[nH]c3ccccc23)C(=O)N/C1=C/c1cnc[nH]1 [DHTD (3), dehydrohistidyltryptophenyl-diketopiperazine] | 20 to 40 µM | – | – | – | – | – | –
